The term pEC50 denotes the EC50 on a negative log10 scale, so that one unit is a factor of ten. A high value points to a low EC50.

pEC50: −log10 of the molar value.

The target in this assay is Kallikrein-7 (Homo sapiens, UniProt P49862).
Sequence of Kallikrein-7 (P49862 whole entry): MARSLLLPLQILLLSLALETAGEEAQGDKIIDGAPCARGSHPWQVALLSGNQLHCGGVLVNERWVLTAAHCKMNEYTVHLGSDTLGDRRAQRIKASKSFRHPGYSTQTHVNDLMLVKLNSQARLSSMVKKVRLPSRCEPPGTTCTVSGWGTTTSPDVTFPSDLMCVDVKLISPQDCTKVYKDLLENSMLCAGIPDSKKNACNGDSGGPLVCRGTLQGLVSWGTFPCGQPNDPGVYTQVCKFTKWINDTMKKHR
`COc1ccccc1C1CC(c2ccc(C)cc2)=Nc2nnnn21` (stereo not given) showed a negative logarithm of the EC50 (pEC50) of 4.63.
`COC(=O)c1[nH]n(-c2ccccc2)c2c(O)n(-c3ccccc3OC)c(=O)c1-2` [methyl 5-(2-methoxyphenyl)-4,6-bis(oxidanylidene)-1-phenyl-3a,6a-dihydropyrrolo[3,4-c]pyrazole-3-carboxylate]: the pEC50 was under 4.16.
The value for `COCCN1Cc2cc(=O)n3c(nc4ccccc43)c2=C1N` [SMR000369291] was under 4.16; that for `COC(=O)c1ccc(C2C3=C(CC(C)(C)CC3=O)N=C(C)C2C#N)cc1` (stereo not given) [methyl 4-(3-cyano-2,7,7-trimethyl-5-oxo-1,4,6,8-tetrahydroquinolin-4-yl)benzoate] was 4.68; that for `COC(=O)C1=CN=CC(C(=O)OC)C1c1ccc(C(=O)OC)cc1` (stereo not given) [MLS000111732] was under 4.16.
`COc1ccccc1C1CC(c2ccccc2)=Nc2nnnn21` (stereo not given) [SMR000107979] had a negative-log EC50 (pEC50) of 4.92.
The result for `C=CCOC(=O)C1=C(C)N=C(SCC(=O)NC(=O)OCC)C(C#N)C1c1cccnc1` (stereo not given) [prop-2-enyl 5-cyano-6-[2-(ethoxycarbonylamino)-2-oxidanylidene-ethyl]sulfanyl-2-methyl-4-pyridin-3-yl-1,4-dihydropyridine-3-carboxylate] reads 5.34.
`COc1ccc(C2C(C(=O)N3CCOCC3)=C(C)N=C3CC(C)(C)CC(=O)C32)c(OC)c1` (stereo not given) [MLS000076547] gave a pEC50 of 4.28.
For `CC1=NC2=C(C(=O)CC(C)(C)C2)C(c2cccnc2)C1C#N` (stereo not given) [2,7,7-trimethyl-5-oxo-4-pyridin-3-yl-1,4,6,8-tetrahydroquinoline-3-carbonitrile], the pEC50 was under 4.16.
With `COC(=O)CC1=C(C(=O)OC)C(c2ccccc2[N+](=O)[O-])C(C#N)C(=N)O1` [methyl (4S)-6-amino-5-cyano-2-(2-methoxy-2-oxoethyl)-4-(2-nitrophenyl)-4H-pyran-3-carboxylate], the pEC50 was 5.09.
